# Measured values as given in patent publication US20260049085A1, “CYCLIC COMPOUNDS AND METHODS OF USING SAME” (SCHRÖDINGER, INC., priority 2022, published 2026).
# Biological target: T1, full-length MALT1 protein His-MALT1(1-824) (Homo sapiens, UniProt Q9UDY8)
# T1 construct: full-length MALT1 protein His-MALT1(1-824); His (N); made in house; host or cells: baculovirus-infected insect cells
# T1 sequence (Q9UDY8 1-824): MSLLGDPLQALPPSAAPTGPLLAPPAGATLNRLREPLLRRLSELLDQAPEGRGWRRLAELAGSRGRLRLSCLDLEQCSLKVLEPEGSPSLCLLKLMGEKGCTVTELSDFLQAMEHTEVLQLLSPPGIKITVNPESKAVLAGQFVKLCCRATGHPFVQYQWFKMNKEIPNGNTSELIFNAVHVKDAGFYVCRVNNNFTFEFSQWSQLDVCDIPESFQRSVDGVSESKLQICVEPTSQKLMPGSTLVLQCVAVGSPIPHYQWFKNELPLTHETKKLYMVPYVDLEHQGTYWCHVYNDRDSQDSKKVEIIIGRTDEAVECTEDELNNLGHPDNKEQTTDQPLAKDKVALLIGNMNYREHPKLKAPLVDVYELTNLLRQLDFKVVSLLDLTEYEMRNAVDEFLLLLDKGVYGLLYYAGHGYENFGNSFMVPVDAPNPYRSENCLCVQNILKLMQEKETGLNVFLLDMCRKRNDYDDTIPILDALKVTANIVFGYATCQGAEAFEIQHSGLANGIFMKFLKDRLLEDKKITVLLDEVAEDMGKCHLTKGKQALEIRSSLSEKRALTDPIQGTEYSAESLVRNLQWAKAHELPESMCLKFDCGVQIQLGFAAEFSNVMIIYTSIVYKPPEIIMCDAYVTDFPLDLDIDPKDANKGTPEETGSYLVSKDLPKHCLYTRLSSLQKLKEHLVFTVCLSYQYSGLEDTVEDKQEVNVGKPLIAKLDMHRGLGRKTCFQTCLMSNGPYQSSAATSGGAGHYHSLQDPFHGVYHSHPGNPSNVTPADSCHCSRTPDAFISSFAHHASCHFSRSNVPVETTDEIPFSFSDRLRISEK
# Assay: MALT1 protease assay (Ac-LRSR-AMC tetrapeptide substrate, fluorescence)
# Assay type: biochemical
# Conditions: 1 nM MALT1, 25 μM Ac-LRSR-AMC, 2 h pre-incubation, 8 hr incubation at RT
# Method: MALT1 protease activity was assessed in an in vitro assay using a tetrapeptide as substrate and full-length MALT1 protein His-MALT1(1-824) purified from baculovirus-infected insect cells.
# The final assay buffer includes 1 nM of MALT1 full-length protein, 25 μM Ac-LRSR-AMC substrate, 50 mM Tris pH 7.5, 600 mM Sodium Citrate, 1 mM DTT, 1 mM EDTA, and 0.05% BSA in 384-well plate format using black microtiter square well plates (Optiplate 384-F, Perkin Elmer).
# Test compounds were dissolved in 100% DMSO stock of 10 mM, with final DMSO concentration of 0.1%. Test compounds were pre-incubated with MALT1 protein for 2 h at room temperature. Substrate was added after the pre-incubation and fluorescence signal was measured using Envision at excitation 355 nm and emission 460 nm after 8 hr incubation at RT.
# The fluorescence units were transformed to percentage of remaining activity by using the high control (HC, median of fluorescence signal from wells containing MALT1 protein, substrate, and DMSO) and low control (LC, median of fluorescence signal from wells with substrate only) with the formula below: […]
# IC50 and Hill coefficients were obtained using Graph Pad Prism (Graph Pad software, Inc, USA) with non-linear regression analysis.
row,SMILES,IC50 [nM]
1,"Cn1cc([C@@]2(C)C[C@@H](C(=O)Nc3cnc(-n4nccn4)c(Cl)c3)c3cnc4c(Cl)c(F)nn4c32)cn1 (single isomer, unassigned) [Example 19, cis-3-chloro-N-(5-chloro-6-(2H-1,2,3-triazol-2-yl)pyridin-3-yl)-2-fluoro-8-methyl-8-(1-methyl-1H-pyrazol-4-yl)-7,8-dihydro-6H-cyclopenta[e]pyrazolo[1,5-a]pyrimidine-6-carboxamide]",≥ 1000
2,"C[C@@]1(c2ccn(C(F)F)n2)C[C@H](C(=O)Nc2cnc(-c3ncccn3)c(Cl)c2)c2cnc3cc(F)nn3c21 (single isomer, unassigned) [Example 142]",≥ 1000
3,"Cn1ccc([C@]2(C)C[C@@H](C(=O)Nc3cnc(-n4nccn4)c(Cl)c3)c3cnc4cc(Cl)nn4c32)n1 (single isomer, unassigned) [Example 77]",≥ 1000
4,"C[C@]1(c2cnn(C(F)F)c2)C[C@@H](C(=O)Nc2cnc(-c3ncccn3)c(C(F)(F)F)c2)c2cnc3cc(F)nn3c21 (single isomer, unassigned) [Example 151]",100 to 1000
5,"CC1(c2cnn(C(F)F)c2)CC(C(=O)Nc2cnc(-c3ncc(F)cn3)c(Cl)c2)c2cnc3cc(F)nn3c21 (single isomer, unassigned) [Example 135]",100 to 1000
6,"C[C@]1(c2cnn(C(F)(F)F)c2)C[C@@H](C(=O)Nc2cnc(-n3nccn3)c(Cl)c2)c2cnc3cc(F)nn3c21 (single isomer, unassigned) [Example 105]",100 to 1000
7,"Cn1ccc([C@@]2(C)C[C@@H](C(=O)Nc3cnc(-n4nccn4)c(Cl)c3)c3cnc4cc(F)nn4c32)n1 (single isomer, unassigned) [Example 35]",100 to 1000
8,"Cn1ccc([C@]2(C)C[C@@H](C(=O)Nc3cnc(-n4nccn4)c(Cl)c3)c3cnc4cc(F)nn4c32)n1 (single isomer, unassigned) [Example 33]",≥ 1000
9,"CCn1cc([C@@]2(C)C[C@@H](C(=O)Nc3cnc(-n4nccn4)c(Cl)c3)c3cnc4cc(F)nn4c32)cn1 (single isomer, unassigned) [Example 23]",100 to 1000
10,"COc1cc(NC(=O)[C@@H]2C[C@@](C)(c3ccn(C(F)F)n3)c3c2cnc2cc(F)nn32)cnc1-c1ncccn1 (single isomer, unassigned) [Example 180]",100 to 1000
11,"C[C@@]1(c2ccn(C(F)F)n2)C[C@@H](C(=O)Nc2ccc(-c3ncccn3)c(C(F)(F)F)c2)c2cnc3cc(F)nn3c21 (single isomer, unassigned) [Example 186]",≥ 1000
12,"Cc1cc(NC(=O)[C@H]2C[C@@](C)(c3cnn(C)c3)c3c2cnc2cc(F)nn32)cnc1-n1nccn1 (single isomer, unassigned) [Example 58]",≥ 1000
13,"Cc1cc2ncc3c(n2n1)[C@](C)(c1ccn(C(F)F)n1)C[C@@H]3C(=O)Nc1cnc(-c2ncccn2)c(C(F)(F)F)c1 (racemic) [Example 196, (cis)-8-(1-(difluoromethyl)-1H-pyrazol-3-yl)-2,8-dimethyl-N-(6-(pyrimidin-2-yl)-5-(trifluoromethyl)pyridin-3-yl)-7,8-dihydro-6H-cyclopenta[e]pyrazolo[1,5-a]pyrimidine-6-carboxamide]",100 to 1000
14,"C[C@@]1(c2cnn(C3CC3)c2)C[C@@H](C(=O)Nc2cnc(-n3nccn3)c(Cl)c2)c2cnc3cc(F)nn3c21 (single isomer, unassigned) [Example 29]",≥ 1000
15,"Cn1cc([C@]2(C)C[C@@H](C(=O)Nc3cnc(OC(F)(F)F)c(C#N)c3)c3cnc4cc(F)nn4c32)cn1 (single isomer, unassigned) [Example 53]",≥ 1000
16,"C[C@@]1(c2cnn(CC3CC3)c2)C[C@@H](C(=O)Nc2cnc(-n3nccn3)c(Cl)c2)c2cnc3cc(F)nn3c21 (single isomer, unassigned) [Example 99]",≥ 1000
17,"C[C@]1(c2cnn(C(F)F)c2)C[C@@H](C(=O)Nc2cnc(OC(F)F)c(C#N)c2)c2cnc3cc(F)nn3c21 (single isomer, unassigned) [Example 95]",100 to 1000
18,"Cn1cc([C@]2(C)C[C@H](C(=O)Nc3cnc(-n4nccn4)c(Cl)c3)c3cnc4c(F)c(F)nn4c32)cn1 (single isomer, unassigned) [Example 14]",100 to 1000
19,"CC(F)(F)n1ccc([C@]2(C)C[C@H](C(=O)Nc3cnc(-c4ncccn4)c(C(F)(F)F)c3)c3cnc4cc(F)nn4c32)n1 (single isomer, unassigned) [Example 166, (cis)-8-(1-(1,1-difluoroethyl)-1H-pyrazol-3-yl)-2-fluoro-8-methyl-N-(6-(pyrimidin-2-yl)-5-(trifluoromethyl)pyridin-3-yl)-7,8-dihydro-6H-cyclopenta[e]pyrazolo[1,5-a]pyrimidine-6-carboxamide]",100 to 1000
20,"C[C@@]1(c2ccn(C(F)F)n2)C[C@@H](C(=O)Nc2ccc(-c3ncccn3)c(Cl)c2)c2cnc3cc(F)nn3c21 (single isomer, unassigned) [Example 190]",≥ 1000
21,"C[C@@]1(c2ccn(C(F)F)n2)C[C@@H](C(=O)Nc2cnc(-c3ncccn3)c(C(F)(F)F)c2)c2cnc3cc(F)nn3c21 (single isomer, unassigned) [Example 137]",≥ 1000
22,"C[C@@]1(c2cnn(C(F)F)c2)C[C@@H](C(=O)Nc2cnc(-c3ncccn3)c(C(F)(F)F)c2)c2cnc3cc(F)nn3c21 (single isomer, unassigned) [Example 149]",≥ 1000
23,"Cn1cc([C@@]2(C)C[C@@H](C(=O)Nc3cnc(OC(F)F)c(C#N)c3)c3cnc4cc(F)nn4c32)cn1 (single isomer, unassigned) [Example 43]",100 to 1000
24,"Cc1cc(NC(=O)C2CC(C)(c3ccn(C(F)F)n3)c3c2cnc2cc(F)nn32)cnc1-c1ncccn1 (single isomer, unassigned) [Example 184]",≥ 1000

# Further lines, results first:
row,IC50 [nM],SMILES
1,100 to 1000,"Cn1ccc([C@@]2(C)C[C@@H](C(=O)Nc3cnc(-n4nccn4)c(Cl)c3)c3cnc4cc(Cl)nn4c32)n1 (single isomer, unassigned) [Example 79]"
2,100 to 1000,"CC(F)(F)n1cc([C@@]2(C)C[C@@H](C(=O)Nc3cnc(-n4nccn4)c(Cl)c3)c3cnc4cc(F)nn4c32)cn1 (single isomer, unassigned) [Example 123]"
3,10 to 100,"C[C@@]1(c2ccn(C(F)F)n2)C[C@H](C(=O)Nc2cnc(-c3ncccn3)c(C(F)(F)F)c2)c2cnc3cc(Cl)nn3c21 (single isomer, unassigned) [Example 173]"
4,10 to 100,"CC1(c2ccn(C(F)F)n2)CC(C(=O)Nc2cnc(-c3ncccn3)c(C(F)F)c2)c2cnc3cc(F)nn3c21 (single isomer, unassigned) [Example 193]"
5,10 to 100,"C[C@]1(c2cnn(C(F)F)c2)C[C@H](C(=O)Nc2cnc(-c3ncncc3F)c(C(F)(F)F)c2)c2cnc3cc(F)nn3c21 (single isomer, unassigned) [Example 118]"
6,10 to 100,"C[C@@]1(c2cncs2)C[C@H](C(=O)Nc2cnc(-n3nccn3)c(Cl)c2)c2cnc3cc(F)nn3c21 (single isomer, unassigned) [Example 38]"
7,< 10,"C[C@]1(c2ccn(C3CC3)n2)C[C@H](C(=O)Nc2cnc(-n3nccn3)c(Cl)c2)c2cnc3cc(F)nn3c21 (single isomer, unassigned) [Example 152]"
8,< 10,"C[C@]1(c2cnn(CC(F)(F)F)c2)C[C@H](C(=O)Nc2cnc(-n3nccn3)c(Cl)c2)c2cnc3cc(F)nn3c21 (single isomer, unassigned) [Example 84]"
9,10 to 100,"C[C@@]1(c2cnn(C3CC3)c2)C[C@H](C(=O)Nc2cnc(OC(F)F)c(C#N)c2)c2cnc3cc(F)nn3c21 (single isomer, unassigned) [Example 74]"
10,10 to 100,"CC1(c2ccn(C(F)F)n2)CC(C(=O)Nc2cnc(-c3ncc(F)cn3)c(Cl)c2)c2cnc3cc(F)nn3c21 (single isomer, unassigned) [Example 114]"
11,10 to 100,"C[C@@]1(c2cnn(CC3CC3)c2)C[C@H](C(=O)Nc2cnc(-n3nccn3)c(Cl)c2)c2cnc3cc(F)nn3c21 (single isomer, unassigned) [Example 100]"
